Source: ChEMBL document CHEMBL1201862, “PubChem BioAssay data set” (2004)
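Interpolation was linear, between the two tested concentrations surrounding the appropriate level; five concentrations were tested over 48 hours in 96-well plates. GI50 marks 50% less growth.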 Active and inactive are the calls of the source. No stated cut-off is given here; in the data, active = GI50 up to about 1.1 µM and inactive = higher.

Columns and labels:
Test in all cases: NCI-60 cell line screen, 48 h
A498 = tested on: A498
CAKI-1 = tested on: CAKI-1
COLO 205 = tested on: COLO 205
DLD-1 = tested on: DLD-1
EKVX = tested on: EKVX
HL-60 = tested on: HL-60
KM-20L2 = tested on: KM-20L2
MOLT-4 = tested on: MOLT-4
NCI/ADR-RES = tested on: NCI/ADR-RES
RPMI-8226 = tested on: RPMI-8226
RXF 393 = tested on: RXF 393
SF-539 = tested on: SF-539
SK-MEL-28 = tested on: SK-MEL-28
SN12C = tested on: SN12C
SW-620 = tested on: SW-620
UACC-62 = tested on: UACC-62
M14 = tested on: M14
MDA-MB-231 = tested on: MDA-MB-231
MDA-N = tested on: MDA-N
PC-3 = tested on: PC-3

Measured: GI50

O=NN(CCCl)C(=O)N[C@H]1CC[C@@H](O)CC1
inactive: A498 > 100 µM | CAKI-1 27.5 µM | COLO 205 24.4 µM | DLD-1 24.6 µM | EKVX 33.6 µM | HL-60 18.2 µM | KM-20L2 > 100 µM | MOLT-4 20.6 µM | NCI/ADR-RES 23.3 µM | RPMI-8226 14 µM | RXF 393 23.9 µM | SF-539 23.3 µM | SK-MEL-28 25.3 µM | SN12C 36.6 µM | SW-620 22.6 µM | UACC-62 13 µM

CCOC(=O)Cn1c(=O)c(C)cn(COCCO)c1=O
inactive: A498 > 100 µM | CAKI-1 > 100 µM | COLO 205 > 100 µM | EKVX > 100 µM | HL-60 > 100 µM | M14 > 100 µM | MDA-MB-231 > 100 µM | MDA-N > 100 µM | MOLT-4 > 100 µM | NCI/ADR-RES > 100 µM | PC-3 > 100 µM | RPMI-8226 > 100 µM | RXF 393 > 100 µM | SF-539 > 100 µM | SK-MEL-28 > 100 µM | SN12C > 100 µM | SW-620 > 100 µM

Cc1cccc2ns[s+]c12
inactive: A498 > 100 µM | CAKI-1 > 100 µM | COLO 205 > 100 µM | DLD-1 > 100 µM | EKVX > 100 µM | HL-60 36.3 µM | KM-20L2 > 100 µM | M14 > 100 µM | MOLT-4 38.5 µM | RPMI-8226 99.5 µM | SF-539 50.7 µM | SK-MEL-28 > 100 µM | SN12C > 100 µM | SW-620 17.4 µM | UACC-62 38.5 µM

CCN1CCCC(NCc2c3ccccc3c(CNC3CCCN(CC)C3)c3ccccc23)C1 (centres undefined)
inactive: A498 12.6 µM | CAKI-1 16.1 µM | COLO 205 1.99 µM | DLD-1 12.8 µM | EKVX 17.3 µM | HL-60 7.03 µM | KM-20L2 3.76 µM | MOLT-4 3.18 µM | NCI/ADR-RES 25 µM | RPMI-8226 10.2 µM | RXF 393 3.48 µM | SF-539 14.9 µM | SK-MEL-28 11.8 µM | SN12C 8.91 µM | SW-620 4.04 µM | UACC-62 12.9 µM

CCCCS(=N)(=O)CC[C@H](N)C(=O)O (some centres undefined) [BUTHIONINE SULFOXIME]
inactive: A498 4820 µM | CAKI-1 3400 µM | COLO 205 > 5000 µM | DLD-1 > 5000 µM | EKVX 1450 µM | HL-60 665 µM | KM-20L2 > 5000 µM | M14 > 5000 µM | MDA-MB-231 > 5000 µM | MDA-N > 10000 µM | MOLT-4 2550 µM | NCI/ADR-RES 2840 µM | PC-3 > 5000 µM | RPMI-8226 2460 µM | RXF 393 > 5000 µM | SF-539 4910 µM | SK-MEL-28 > 5000 µM | SN12C > 5000 µM | SW-620 > 5000 µM | UACC-62 > 5000 µM
